Measured values taken from patent publication US10023552B2, “Method of preparing a liquiritigenin precursor” (priority 2014, dated 2018).
Where two headings read alike, the source gives them in different places.

Tests used:
[1] = tested on: human liver cancer cells SMMC7721; settings: cited from earlier work
[2] = tested on: human leukemia cells HL-60; settings: cited from earlier work
[3] = tested on: human poorly differentiated gastric cancer line BGC-823; settings: cited from earlier work
[4] = tested on: human lung cancer cells A549; settings: cited from earlier work
[5] = Acute toxicity test (Japan Food Analysis Center); assay type: in vivo; settings: tested in Japan Food Analysis Center
Method: The desired product iso-liquiritigenin were tested for acute toxicity in Japan Food Analysis Center and it was confirmed that there is no toxicity.

In the case of COc1cccc2c1C(=O)c1c(O)c3c(c(O)c1C2=O)C[C@@](O)(C(=O)CO)C[C@@H]3O[C@H]1C[C@H](N)[C@H](O)[C@H](C)O1 [adriamycin, reference compound], the “SMMC7721 Inhibition %” value ([1]; Conc. 1 × 10^−5 Mol/l) is given as 97.47%, the “SMMC7721 Inhibition %” value ([1]; Conc. 1 × 10^−6 Mol/l) is given as 58.40% and the “SMMC7721 Inhibition %” value ([1]; Conc. 1 × 10^−7 Mol/l) is given as 10.28%. For the same compound, the “HL-60 Inhibition %” value ([2]; Conc. 1 × 10^−5 Mol/l) was 99.09%, the “BGC-823 Inhibition %” value ([3]; Conc. 1 × 10^−5 Mol/l) was 97.67% and the “BGC-823 Inhibition %” value ([3]; Conc. 1 × 10^−6 Mol/l) was 45.80%. For the same compound, the “BGC-823 Inhibition %” value ([3]; Conc. 1 × 10^−7 Mol/l) was 17.86%, the “A549 Inhibition %” value ([4]; Conc. 1 × 10^−5 Mol/l) was 90.44% and the “A549 Inhibition %” value ([4]; Conc. 1 × 10^−6 Mol/l) was 16.42%. For the same compound, the “A549 Inhibition %” value ([4]; Conc. 1 × 10^−7 Mol/l) was 16.42%.
In the case of O=C1C[C@@H](c2ccc(O)cc2)Oc2cc(O)ccc21 [Liquiritigenin, liquiritigenin], the “SMMC7721 Inhibition %” value ([1]; Conc. 1 μg/ml) is given as 23.17%, the “SMMC7721 Inhibition %” value ([1]; Conc. 10 μg/ml) is given as 96.08% and the “SMMC7721 Inhibition %” value ([1]; Conc. 100 μg/ml) is given as 98.00%. For the same compound, the “HL-60 Inhibition %” value ([2]; Conc. 1 μg/ml) was 50.95%, the “HL-60 Inhibition %” value ([2]; Conc. 10 μg/ml) was 64.40% and the “HL-60 Inhibition %” value ([2]; Conc. 100 μg/ml) was 99.30%. The “BGC-823 Inhibition %” value ([3]; Conc. 1 μg/ml) was 24.41%, the “BGC-823 Inhibition %” value ([3]; Conc. 10 μg/ml) was 73.76% and the “BGC-823 Inhibition %” value ([3]; Conc. 100 μg/ml) was 97.52%. For the same compound, the “A549 Inhibition %” value ([4]; Conc. 1 μg/ml) was 7.76%, the “A549 Inhibition %” value ([4]; Conc. 10 μg/ml) was 35.66% and the “A549 Inhibition %” value ([4]; Conc. 10 μg/ml, listed as Liquiritigenin (−)) was 35.06%. For the same compound, the “A549 Inhibition %” value ([4]; Conc. 100 μg/ml) was 93.03%.
With O=C(/C=C/c1ccc(O)cc1)c1ccc(O)cc1O [iso-liquiritigenin] the acute toxicity [5] was “no toxicity”.
